Measured values taken from ChEMBL document CHEMBL1147447, “Discovery and in vitro evaluation of potent TrkA kinase inhibitors: oxindole and aza-oxindoles” (Bioorg Med Chem Lett, 2004).
Active and inactive are the calls of the source. The calls are words filed in the database; no cut-off is given here.

Experiments:
[1] = molecular target: RAF proto-oncogene serine/threonine-protein kinase (Homo sapiens, UniProt P04049); assay: Inhibition of c-Raf1 kinase
[2] = molecular target: Cyclin-dependent kinase 2/cyclin A (Homo sapiens, UniProt P24941); assay: Inhibition of Cyclin-dependent kinase 2 cyclin A; type: protein-complex assay
[3] = molecular target: T1, High affinity nerve growth factor receptor (Homo sapiens, UniProt P04629); assay: (§1) Inhibition of receptor Tyrosine kinase A, TrkA (nerve growth factor receptor)
Target sequence in this assay (P04629 whole entry): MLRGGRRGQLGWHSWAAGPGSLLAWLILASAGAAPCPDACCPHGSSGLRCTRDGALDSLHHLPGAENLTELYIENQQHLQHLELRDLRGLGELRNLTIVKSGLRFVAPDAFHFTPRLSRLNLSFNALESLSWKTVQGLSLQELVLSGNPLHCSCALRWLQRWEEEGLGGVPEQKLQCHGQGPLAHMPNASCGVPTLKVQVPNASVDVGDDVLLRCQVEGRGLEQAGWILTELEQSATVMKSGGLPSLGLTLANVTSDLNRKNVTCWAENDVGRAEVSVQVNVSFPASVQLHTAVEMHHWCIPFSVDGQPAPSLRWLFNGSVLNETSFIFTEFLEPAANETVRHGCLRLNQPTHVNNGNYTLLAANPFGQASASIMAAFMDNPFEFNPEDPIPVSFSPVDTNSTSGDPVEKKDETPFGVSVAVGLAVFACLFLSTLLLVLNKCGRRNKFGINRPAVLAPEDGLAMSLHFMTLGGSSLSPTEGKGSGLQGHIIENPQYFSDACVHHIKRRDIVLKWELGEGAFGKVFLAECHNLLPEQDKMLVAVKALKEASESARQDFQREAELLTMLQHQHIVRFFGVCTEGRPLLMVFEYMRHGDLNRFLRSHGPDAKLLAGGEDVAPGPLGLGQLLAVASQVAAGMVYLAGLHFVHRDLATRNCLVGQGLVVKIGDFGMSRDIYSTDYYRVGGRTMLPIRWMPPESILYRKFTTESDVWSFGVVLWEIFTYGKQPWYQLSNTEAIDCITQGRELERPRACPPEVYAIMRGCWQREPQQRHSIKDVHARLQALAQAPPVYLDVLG

[4] = molecular target: T1, High affinity nerve growth factor receptor; assay: as §1; remark: listed apart in the source
Target sequence in this assay (P04629 33-796 limits assumed): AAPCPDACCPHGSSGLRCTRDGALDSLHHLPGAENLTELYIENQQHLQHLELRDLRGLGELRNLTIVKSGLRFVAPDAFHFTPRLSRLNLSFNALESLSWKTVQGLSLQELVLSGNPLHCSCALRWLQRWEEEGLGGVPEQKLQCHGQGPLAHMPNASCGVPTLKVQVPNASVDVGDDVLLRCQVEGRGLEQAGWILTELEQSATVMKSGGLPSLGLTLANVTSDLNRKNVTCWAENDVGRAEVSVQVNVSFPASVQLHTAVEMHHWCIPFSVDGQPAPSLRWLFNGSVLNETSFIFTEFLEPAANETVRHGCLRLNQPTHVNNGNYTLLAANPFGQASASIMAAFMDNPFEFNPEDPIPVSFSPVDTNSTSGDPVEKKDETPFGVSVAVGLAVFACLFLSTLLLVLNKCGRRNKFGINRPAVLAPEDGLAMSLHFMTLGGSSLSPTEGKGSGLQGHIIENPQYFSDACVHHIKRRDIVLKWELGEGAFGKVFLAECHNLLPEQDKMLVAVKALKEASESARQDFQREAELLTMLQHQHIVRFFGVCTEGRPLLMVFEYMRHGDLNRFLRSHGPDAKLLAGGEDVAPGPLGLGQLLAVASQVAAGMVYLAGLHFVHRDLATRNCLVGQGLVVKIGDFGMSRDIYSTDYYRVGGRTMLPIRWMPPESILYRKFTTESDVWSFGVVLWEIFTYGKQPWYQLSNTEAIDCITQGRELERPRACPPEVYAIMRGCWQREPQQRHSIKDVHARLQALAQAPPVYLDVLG

[5] = Inhibition prostate cancer growth in 10 diverse animal models; type: functional, tissue-based; details: Prostate gland

RAF proto-oncogene serine/threonine-protein kinase, sequence (P04049 whole entry): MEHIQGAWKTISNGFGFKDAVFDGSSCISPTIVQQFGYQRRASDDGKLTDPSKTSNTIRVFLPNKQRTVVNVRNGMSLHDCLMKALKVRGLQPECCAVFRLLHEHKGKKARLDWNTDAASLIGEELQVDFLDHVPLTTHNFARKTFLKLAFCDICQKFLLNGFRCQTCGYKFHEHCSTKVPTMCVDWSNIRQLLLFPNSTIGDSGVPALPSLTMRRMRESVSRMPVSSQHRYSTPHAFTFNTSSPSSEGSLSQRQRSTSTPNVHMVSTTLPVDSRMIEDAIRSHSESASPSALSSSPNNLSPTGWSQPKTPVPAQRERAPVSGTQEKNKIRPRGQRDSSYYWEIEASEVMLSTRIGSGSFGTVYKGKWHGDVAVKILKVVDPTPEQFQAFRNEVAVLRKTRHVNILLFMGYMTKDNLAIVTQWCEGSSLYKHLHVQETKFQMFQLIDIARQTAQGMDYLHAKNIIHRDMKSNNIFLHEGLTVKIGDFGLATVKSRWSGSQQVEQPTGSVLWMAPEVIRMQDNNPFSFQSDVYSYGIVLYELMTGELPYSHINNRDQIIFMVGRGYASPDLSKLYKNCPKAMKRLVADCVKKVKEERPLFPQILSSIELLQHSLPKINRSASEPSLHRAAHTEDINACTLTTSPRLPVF

SMILES	IC50 [1]	IC50 [2]	IC50 [3]	Activity [4]	Activity [5]
O=C1Nc2ccccc2/C1=C/Nc1ccc(-n2cncn2)cc1 [GW301789X]	> 10 µM	7.2 µM	0.008 µM	–	–
O=C1Nc2ccc(I)cc2C1=Cc1cc(Br)c(O)c(Br)c1 [GW305074X]	–	–	4.7 µM	–	–
Cn1cc(/C=C2\C(=O)Nc3cccnc32)c2ccccc21	> 12 µM	–	–	–	–
C[C@]12O[C@H](C[C@]1(O)CO)n1c3ccccc3c3c4c(c5c6ccccc6n2c5c31)CNC4=O	–	–	–	Active	Active
O=C1Nc2ccccc2/C1=C/Nc1ccc2[nH]c(=O)[nH]c2c1 [GW284408X]	> 10 µM	2.5 µM	0.007 µM	–	–
O=C1Nc2ccccc2/C1=C1\CCc2cc(O)ccc21	> 10 µM	8 µM	0.006 µM	–	–
CS(=O)(=O)Nc1ccc(N/C=C2\C(=O)Nc3ccccc32)cc1 [GW278681X]	> 10 µM	8 µM	0.006 µM	–	–
O=C1Nc2ccc3ncsc3c2/C1=C/Nc1ccc(S(=O)(=O)Nc2ccccn2)cc1	–	–	0.009 µM	–	–
NS(=O)(=O)c1cccc(N/C=C2\C(=O)Nc3ccccc32)c1 [GW275616X]	> 10 µM	> 10 µM	0.063 µM	–	–
COc1ccccc1-c1cc(/C=C2\C(=O)Nc3ncc(Br)cc32)cc(Br)c1O [GW442130X]	0.7 µM	10.4 µM	0.008 µM	–	–
Cn1cc(/C=C2\C(=O)Nc3ncccc32)c2ccccc21	7.2 µM	> 6 µM	0.012 µM	–	–
O=C1Nc2ncc(Br)cc2/C1=C/c1cccc(Oc2ccccc2)c1	> 50 µM	> 50 µM	0.061 µM	–	–
